Patent US12454675B2, “Method of increasing protein yield in mammalian cells in serum-free culture medium” (AGENCY FOR SCIENCE, TECHNOLOGY AND RESEARCH, priority 2016, dated 2025)

How the values were obtained:
[1] = tested on: CHO cell culture; details: 3.6 g/l of monosaccharides; cited from earlier work
[2] = tested on: CHO-DG44 cells; assay: Disaccharides to support growth of CHO-DG44 cells in HyQ PF-CHO; type: cell-based, Chinese Hamster; details: 10 g/l sugar, 22 days
Text: (§1) In (A) CHO-K1 cells were cultivated in a serum-free protein-free cell culture medium, HyQ PF-CHO, with 3.6 g/l of different sugars (maltose, sucrose, lactose, trehalose or glucose) as carbohydrate source. The viable cell densities (lined markers) and culture viabilities (marker only) of these cultures at the beginning and end of each passage over a period of 74 days were plotted. Cultures with sucrose, lactose or trehalose were terminated on Day 31 due to the decreased culture viabilities and reduced viable cell densities. The experiment was repeated with a seeding cell density of 1.0×10^6 cells/ml to obtain similar results. In (B) CHO-DG44 cells were cultivated with a seeding cell density of 1.0×10^6 cells/ml in a serum-free protein-free cell culture medium, HyQ PF-CHO, with 10 g/l of different sugars (maltose, sucrose, lactose, trehalose or glucose) as carbohydrate source. The viable cell densities (lined markers) and cell viabilities (marker only) of these cultures at the beginning and end of each passage over a period of 22 days were plotted. In (C) HEK293 cells were cultivated with a seeding cell density of 1.0×10^6 cells/ml in a protein-free chemically defined cell culture medium, PFCDM, with 10 g/l of different sugars (maltose, sucrose, lactose, trehalose or glucose) as carbohydrate source. The viable cell densities (lined markers) and cell viabilities (marker only) of these cultures at the beginning and end of each passage over a period of 22 days were plotted. Cultures with sucrose, lactose or trehalose were terminated on Day 14 due to the decreased culture viabilities and reduced viable cell densities.
To determine whether the same approach can be applied on other CHO cell lines, the use of disaccharides to support the growth of CHO-DG44 cells was evaluated. These cells were cultivated with 10 g/l of maltose, sucrose, lactose, trehalose or glucose as energy source in a serum-free protein-free cell culture medium HyQ PF-CHO. The viable cell densities and culture viabilities of these cultures at the beginning and end of each passage over a period of 22 days are shown in FIG. 1B.

[3] = tested on: CHO-K1 cells; assay: Adaptation of CHO-K1 cells into HyQ PF-CHO media with different disaccharides; type: cell-based, Chinese Hamster; details: 3.6 g/l sugar, seeding 0.3×10^6 cells/ml, 74 days
Protocol: Viable cell density and culture viability were determined by Trypan blue dye exclusion method using Vi-Cell XR Cell Viability Analyzer (Beckman Coulter, Brea, CA) according to manufacturer's instructions. For biochemical and other cell culture parameter analyses, 1 ml of culture sample was centrifuged at 8000 g for 10 minutes to obtain clarified supernatant. […] At each passage during the adaptation process, viable cell density and culture viability before passage and after inoculation into fresh media were determined. […] Osmolality of these culture media were determined to be between 308 and 324 mOsm/kg, well within the range for optimal mammalian cell culture. The viable cell densities and culture viabilities of these cultures at the beginning and end of each passage over a period of 74 days are shown in FIG. 1. […] However, culture viabilities and viable cell densities of the maltose culture started to pick up on Day 14. Proliferation of the cells in maltose culture then maintained over the period of the time studied, while those in the other disaccharides were terminated on Day 31 due to the lack of cell growth and depressed culture viabilities.

[4] = tested on: HEK293 cells; assay: Disaccharides to support growth of HEK293 cells in PFCDM; type: cell-based; details: 10 g/l sugar, seeding 1.0×10^6 cells/ml, 22 days
Text: as §1

Row | SMILES | specific consumption rate [1] [ng/cell/day] | proliferation in serum-free protein-free culture medium with the sugar as sugar source [2] | proliferation in serum-free protein-free culture medium with the sugar as sugar source [3] | proliferation in serum-free culture medium with the sugar as sugar source [4]
1 | O=C(CO)[C@@H](O)[C@H](O)[C@H](O)CO [fructose] | 0.21 | – | – | –
2 | O=C[C@H](O)[C@@H](O)[C@@H](O)[C@H](O)CO [galactose] | 0.21 | – | – | –
3 | OC[C@H]1O[C@@H](O[C@H]2[C@H](O)[C@@H](O)C(O)O[C@@H]2CO)[C@H](O)[C@@H](O)[C@H]1O (some centres unmarked) [lactose] | – | not | not | not
4 | OC[C@H]1O[C@@](CO)(O[C@H]2O[C@H](CO)[C@@H](O)[C@H](O)[C@H]2O)[C@@H](O)[C@@H]1O [sucrose] | – | not | not | not
5 | OC[C@H]1O[C@H](O[C@H]2O[C@H](CO)[C@@H](O)[C@H](O)[C@H]2O)[C@H](O)[C@@H](O)[C@@H]1O [trehalose] | – | not | not | not
